Values after ≈ are worked out from the molar mass of the structure shown. Values joined by “and” are separate entries in the source; they are usually repeats but may differ in a detail not shown here. Equal entries are not always repeated.
Tests used:
[1] = system: Staphylococcus aureus S13E; type: cell-based
Procedure: (§1) The MIC's were determined using a standard broth micro-dilution assay.

[2] = system: Staphylococcus aureus SA1199B; type: cell-based
Procedure: as §1

Streptococcus pneumoniae = experiment: mouse protection, experimentally-induced infection; type: in vivo; conditions: mice infected with Streptococcus pneumoniae, two doses
[3] = system: vancomycin-susceptible enterococci; experiment: broth micro-dilution, mean geometric MIC; type: cell-based, Enterococcus faecium and Enterococcus faecalis; conditions: enterococci, 24-hour incubation
Entercoccus faecium 2041 = experiment: broth micro-dilution MIC; type: cell-based; conditions: Entercoccus faecium 2041
Procedure: (§2) The formula I compounds have in vitro and in vivo activity against Gram-positive pathogenic bacteria. The MIC's were determined using a standard broth micro-dilution assay.

[4] = system: Staphylococcus haemolyticus 415; experiment: broth micro-dilution MIC; type: cell-based
Procedure: as §2

[5] = system: Staphylococcus haemolyticus 105; experiment: broth micro-dilution MIC; type: cell-based
Procedure: as §2

Entercoccus faecium 180 = experiment: broth micro-dilution MIC; type: cell-based; conditions: Entercoccus faecium 180
Procedure: as §2

[6] = system: Enterococcus gallinarum 245; experiment: broth micro-dilution MIC; type: cell-based; conditions: Enterococcus gallinarum 245
Procedure: as §2

[7] = system: Entercoccus faecium 180-1; experiment: broth micro-dilution MIC; type: cell-based
Procedure: as §1

Entercoccus faecium 276 = experiment: broth micro-dilution MIC; type: cell-based
Procedure: as §1

[8] = system: Staphylococcus aureus 489; experiment: broth micro-dilution MIC; type: cell-based
Procedure: as §1

[9] = system: Staphylococcus aureus X778; experiment: broth micro-dilution MIC; type: cell-based
Procedure: as §1

[10] = system: Staphylococcus aureus X400; experiment: broth micro-dilution MIC; type: cell-based
Procedure: as §1

[11] = system: Staphylococcus aureus SA1199; experiment: broth micro-dilution MIC; type: cell-based
Procedure: as §1

[12] = system: Staphylococcus aureus SA1199A; experiment: broth micro-dilution MIC; type: cell-based
Procedure: as §1

Streptococcus pyogenes = experiment: mouse protection, experimentally-induced infection; type: in vivo; conditions: mice infected with Streptococcus pyogenes, two doses
[13] = system: vancomycin-resistant enterococci; experiment: broth micro-dilution, mean geometric MIC; type: cell-based, Enterococcus faecium and Enterococcus faecalis; conditions: enterococci, 24-hour incubation
[14] = system: Staphylococcus epidermidis 270; experiment: broth micro-dilution MIC; type: cell-based
Procedure: as §2

[15] = system: Streptococcus pneumoniae P1; experiment: broth micro-dilution MIC; type: cell-based
Procedure: as §2

[16] = system: Staphylococcus aureus 446; experiment: broth micro-dilution MIC; type: cell-based
Procedure: as §1

[17] = system: Streptococcus pyogenes C203; experiment: broth micro-dilution MIC; type: cell-based
Procedure: as §1

[18] = system: Staphylococcus aureus 447; experiment: broth micro-dilution MIC; type: cell-based
Procedure: as §1

With `CN[C@H](CC(C)C)C(=O)N[C@H]1C(=O)N[C@@H](CC(N)=O)C(=O)N[C@H]2C(=O)N[C@H]3C(=O)N[C@H](C(=O)N[C@H](C(=O)O)c4cc(O)cc(O)c4-c4cc3ccc4O)[C@H](O[C@H]3C[C@](C)(N)[C@@H](O)[C@H](C)O3)c3ccc(cc3)Oc3cc2cc(c3O[C@@H]2O[C@H](CO)[C@@H](O)[C@H](O)[C@H]2O[C@H]2C[C@](C)(N)[C@@H](O)[C@H](C)O2)Oc2ccc(cc2Cl)[C@H]1O` [Compound A82846A, A82846A, reference compound] the MIC [1] was 0.125 µg/mL (≈ 0.0802 µM), the MIC [2] was “≤ .06 µg/mL” and the ED50 (Streptococcus pneumoniae) was 0.39 mg/kg/2. For the same compound, the “mean geometric MIC, Vancomycin Sensitive Strains” value [3] was 1.7 µg/mL, the MIC (Entercoccus faecium 2041) was 0.125 µg/mL (≈ 0.0802 µM) and the MIC [4] was 1 µg/mL (≈ 0.642 µM). The MIC [5] was 0.5 µg/mL (≈ 0.321 µM), the MIC (Entercoccus faecium 180) was 16 µg/mL (≈ 10.3 µM) and the MIC [6] was 0.125 µg/mL (≈ 0.0802 µM). For the same compound, the MIC [7] was 0.125 µg/mL (≈ 0.0802 µM), the MIC (Entercoccus faecium 276) was 0.125 µg/mL (≈ 0.0802 µM) and the MIC [8] was 0.5 µg/mL (≈ 0.321 µM). It also gave an MIC [9] of 0.125 µg/mL (≈ 0.0802 µM), an MIC [10] of 0.125 µg/mL (≈ 0.0802 µM) and an MIC [11] of 0.125 µg/mL (≈ 0.0802 µM). The MIC [12] was “≤ .06 µg/mL” and the ED50 (Streptococcus pyogenes) was 0.084 mg/kg/2.

In the case of `CN[C@H](CC(C)C)C(=O)N[C@H]1C(=O)N[C@@H](CC(N)=O)C(=O)N[C@H]2C(=O)N[C@H]3C(=O)N[C@H](C(=O)N[C@H](C(=O)O)c4cc(O)cc(O)c4-c4cc3ccc4O)[C@H](O[C@H]3C[C@](C)(N)[C@@H](O)[C@H](C)O3)c3ccc(c(Cl)c3)Oc3cc2cc(c3O[C@@H]2O[C@H](CO)[C@@H](O)[C@H](O)[C@H]2O[C@H]2C[C@](C)(NCc3ccc(OCc4ccc(Cl)cc4)cc3)[C@@H](O)[C@H](C)O2)Oc2ccc(cc2Cl)[C@H]1O` [Compound 93], the “mean geometric MIC, Vancomycin Resistant Strains” value [13] is reported as 0.42 µg/mL, the MIC [1] is reported as 1 µg/mL (≈ 0.549 µM) and the MIC [2] is reported as 1 µg/mL (≈ 0.549 µM). The ED50 (Streptococcus pneumoniae) was 0.012 mg/kg/2, the “mean geometric MIC, Vancomycin Sensitive Strains” value [3] was 0.042 µg/mL and the MIC [14] was 1 µg/mL (≈ 0.549 µM). It also gave an MIC (Entercoccus faecium 2041) of no more than 0.06 µg/mL, an MIC [15] of no more than 0.06 µg/mL and an MIC [4] of 1 µg/mL (≈ 0.549 µM). For the same compound, the MIC [5] was 1 µg/mL (≈ 0.549 µM), the MIC (Entercoccus faecium 180) was no more than 0.06 µg/mL and the MIC [6] was 1 µg/mL (≈ 0.549 µM). It also gave an MIC [7] of no more than 0.06 µg/mL, an MIC [16] of 2 µg/mL (≈ 1.1 µM) and an MIC [9] of 1 µg/mL (≈ 0.549 µM). For the same compound, the MIC [10] was no more than 0.06 µg/mL, the MIC [11] was 2 µg/mL (≈ 1.1 µM) and the MIC [12] was no more than 0.06 µg/mL. For the same compound, the MIC [17] was no more than 0.06 µg/mL and the ED50 (Streptococcus pyogenes) was 0.074 mg/kg/2.

In the case of `CNC(CC(C)C)C(=O)NC1C(=O)NC(CC(N)=O)C(=O)NC2C(=O)NC3C(=O)NC(C(=O)NC(C(=O)O)c4cc(O)cc(O)c4-c4cc3ccc4O)C(OC3CC(C)(N)C(O)C(C)O3)c3ccc(c(Cl)c3)Oc3cc2cc(c3OC2OC(CO)C(O)C(O)C2OC2CC(C)(NCc3ccc(OCCCc4ccccc4)cc3)C(O)C(C)O2)Oc2ccc(cc2Cl)C1O` (stereo not shown) [Compound 223], the “mean geometric MIC, Vancomycin Resistant Strains” value [13] is reported as 0.79 µg/mL, the MIC [1] is reported as 0.5 µg/mL (≈ 0.275 µM) and the MIC [2] is reported as 1 µg/mL (≈ 0.55 µM). The ED50 (Streptococcus pneumoniae) was less than 0.031 mg/kg/2, the “mean geometric MIC, Vancomycin Sensitive Strains” value [3] was 0.055 µg/mL and the MIC [14] was 0.5 µg/mL (≈ 0.275 µM). The MIC (Entercoccus faecium 2041) was no more than 0.06 µg/mL, the MIC [15] was no more than 0.06 µg/mL and the MIC [4] was 1 µg/mL (≈ 0.55 µM). The MIC [5] was 1 µg/mL (≈ 0.55 µM), the MIC (Entercoccus faecium 180) was no more than 0.06 µg/mL and the MIC [6] was 1 µg/mL (≈ 0.55 µM). It also gave an MIC [7] of no more than 0.06 µg/mL, an MIC [8] of 1 µg/mL (≈ 0.55 µM) and an MIC [18] of 0.5 µg/mL (≈ 0.275 µM). The MIC [9] was 1 µg/mL (≈ 0.55 µM), the MIC [10] was 1 µg/mL (≈ 0.55 µM) and the MIC [11] was 2 µg/mL (≈ 1.1 µM). It also gave an MIC [12] of no more than 0.06 µg/mL, an MIC [17] of no more than 0.06 µg/mL and an ED50 (Streptococcus pyogenes) of less than 0.031 mg/kg/2.

For `CNC(CC(C)C)C(=O)NC1C(=O)NC(CC(N)=O)C(=O)NC2C(=O)NC3C(=O)NC(C(=O)NC(C(=O)O)c4cc(O)cc(O)c4-c4cc3ccc4O)C(OC3CC(C)(N)C(O)C(C)O3)c3ccc(c(Cl)c3)Oc3cc2cc(c3OC2OC(CO)C(O)C(O)C2OC2CC(C)(NCc3ccc(CCc4ccccc4)cc3)C(O)C(C)O2)Oc2ccc(cc2Cl)C1O` (stereo not shown) [Compound 100], the “mean geometric MIC, Vancomycin Resistant Strains” value [13] was 0.71 µg/mL, the MIC [2] was 0.5 µg/mL (≈ 0.28 µM) and the ED50 (Streptococcus pneumoniae) was 0.046 mg/kg/2. The “mean geometric MIC, Vancomycin Sensitive Strains” value [3] was 0.042 µg/mL, the MIC [14] was 0.5 µg/mL and 0.25 µg/mL and the MIC (Entercoccus faecium 2041) was no more than 0.06 µg/mL. For the same compound, the MIC [15] was no more than 0.06 µg/mL, the MIC [4] was 2 µg/mL and 4 µg/mL and the MIC [5] was 1 µg/mL (≈ 0.56 µM). The MIC (Entercoccus faecium 180) was 0.25 µg/mL (≈ 0.14 µM), the MIC [6] was 2 µg/mL (≈ 1.12 µM) and the MIC [7] was no more than 0.06 µg/mL. The MIC [16] was 1 µg/mL (≈ 0.56 µM), the MIC [17] was no more than 0.06 µg/mL and the ED50 (Streptococcus pyogenes) was 0.062 mg/kg/2.
